The record followed here is the supplement of paper PMC11208160.

This series is described as follows: recombinant UMI read abundance after kanamycin selection (control-corrected) (log10(CPM+1)); higher = more efficient recombination; extreme values may be limits of the assay; sequences stand for … in AGTGCAGAGAAAATCGGCCAGTTTTCTCTGCCTGCAGTCCGCATGCCGTGGGACCCCTTGGGTTCTAACCTGTTGCCTAGATTTATGCAGCGGACTGCCTTTCTCCCAAAGTGATAAACCGG…AGGTTGGTTTCACT; site = the 11-nt donor. Here is the method:
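Pooled E. coli donor-specificity screen for the IS621 bridge recombinase. Each library member carries a reprogrammed 11-nt donor and a full-length LE bridge RNA expressed in cis from the natural promoter, with a paired donor-binding loop (8-nt LDG + 4-nt RDG) and a target-binding loop fixed to T5. It is co-electroporated with a T5 target plasmid; recombinase is induced with 0.07 mM IPTG and recombinants are selected on kanamycin. UMIs are counted as CPM, averaged over two biological replicates and corrected by the unselected control. Molecule = full bridge RNA written as DNA, built from the T5 scaffold: LDG = donor specificity nt 1-8, RDG = reverse complement of nt 8-11.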
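Note: IS621 bridge recombinase in Escherichia coli cells against a fixed T5 target plasmid.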

Regarding “ACTAGGGCATGGACCGGTTTTCCCGGTAATCCGTATTTGGT (site ACTAGAGCTAC)”, the “recombinant UMI read abundance (log10)” value was 1.2.

Consider “ACTAGGGCATGGACCGGTTTTCCCGGTAATCCGTATTTGGT (site ACTAGCGCTAC)”, for which the “recombinant UMI read abundance (log10)” value came to 0.00536.

Regarding “ACTAGGGCATGGACCGGTTTTCCCGGTAATCCGTATTTGGT (site ACTAGGGCTAC)”, the “recombinant UMI read abundance (log10)” value is 1.2.

As for “ACTAGGGCATGGACCGGTTTTCCCGGTAATCCGTATTTGGT (site ACTAGTGCTAC)”, the “recombinant UMI read abundance (log10)” value stood at 0.0165.

On to “ACTAGTACATGGACCGGTTTTCCCGGTAATCCGTATTTGGT (site ACTAGTACTAC)”, for which the “recombinant UMI read abundance (log10)” value was determined as 1.19.

Turning to “ACTAGTACATGGACCGGTTTTCCCGGTAATCCGTATTTGGT (site ACTAGTCCTAC)”, the “recombinant UMI read abundance (log10)” value stood at 0.00589.

“ACTAGTACATGGACCGGTTTTCCCGGTAATCCGTATTTGGT (site ACTAGTGCTAC)”: the “recombinant UMI read abundance (log10)” value was 0.181.

Regarding “ACTAGTACATGGACCGGTTTTCCCGGTAATCCGTATTTGGT (site ACTAGTTCTAC)”, the “recombinant UMI read abundance (log10)” value came out at 0.

As to “ACTAGTGCATGGACCGGTTTTCCCGGTAATCCGTATTTGCC (site ACTAGTGCTGG)”, the “recombinant UMI read abundance (log10)” value came to 1.93.

Consider “ACTAGTTCATGGACCGGTTTTCCCGGTAATCCGTATTTGAA (site ACTAGTTCTTT)”, for which the “recombinant UMI read abundance (log10)” value is 1.03.

As to “ACTATGCCATGGACCGGTTTTCCCGGTAATCCGTATTTGTC (site ACTATGCCTGA)”, the “recombinant UMI read abundance (log10)” value came to 0.

With “ACTCATCCATGGACCGGTTTTCCCGGTAATCCGTATTTGAC (site ACACATCCTGT)”, the “recombinant UMI read abundance (log10)” value was 0.

Regarding “ACTCATCCATGGACCGGTTTTCCCGGTAATCCGTATTTGAC (site ACCCATCCTGT)”, the “recombinant UMI read abundance (log10)” value is 0.872.

Turning to “ACTCATCCATGGACCGGTTTTCCCGGTAATCCGTATTTGAC (site ACGCATCCTGT)”, the “recombinant UMI read abundance (log10)” value amounted to 0.525.

As to “ACTCATCCATGGACCGGTTTTCCCGGTAATCCGTATTTGAC (site ACTCATCCTGT)”, the “recombinant UMI read abundance (log10)” value was 0.798.

Take “ACTCCAACATGGACCGGTTTTCCCGGTAATCCGTATTTGCT (site ACTCCAACTAG)”: the “recombinant UMI read abundance (log10)” value stood at 1.66.

Take “ACTCCACCATGGACCGGTTTTCCCGGTAATCCGTATTTGTG (site ACTCCACCTCA)”: the “recombinant UMI read abundance (log10)” value stood at 0.0232.

Take “ACTCCGACATGGACCGGTTTTCCCGGTAATCCGTATTTGGC (site ACTCCGACTGC)”: the “recombinant UMI read abundance (log10)” value came to 1.98.

Regarding “ACTCGAACATGGACCGGTTTTCCCGGTAATCCGTATTTGTC (site ACACGAACTGA)”, the “recombinant UMI read abundance (log10)” value was 0.

“ACTCGAACATGGACCGGTTTTCCCGGTAATCCGTATTTGTC (site ACCCGAACTGA)”: the “recombinant UMI read abundance (log10)” value was found to be 1.84.

On to “ACTCGAACATGGACCGGTTTTCCCGGTAATCCGTATTTGTC (site ACGCGAACTGA)”, for which the “recombinant UMI read abundance (log10)” value was determined as 1.26.

Take “ACTCGAACATGGACCGGTTTTCCCGGTAATCCGTATTTGTC (site ACTCGAACTGA)”: the “recombinant UMI read abundance (log10)” value was 2.

Turning to “ACTCGCTCATGGACCGGTTTTCCCGGTAATCCGTATTTGGT (site ACTCGCTCTAC)”, the “recombinant UMI read abundance (log10)” value was 2.03.

As for “ACTCTACCATGGACCGGTTTTCCCGGTAATCCGTATTTGCT (site ACTCTACCTAG)”, the “recombinant UMI read abundance (log10)” value stood at 0.

Regarding “ACTGACACATGGACCGGTTTTCCCGGTAATCCGTATTTGAC (site ACTGACACTGT)”, the “recombinant UMI read abundance (log10)” value was 2.83.

For “ACTTATGCATGGACCGGTTTTCCCGGTAATCCGTATTTGCT (site ACTTATGCTAG)”, the “recombinant UMI read abundance (log10)” value amounted to 0.0248.

Consider “ACTTCGCCATGGACCGGTTTTCCCGGTAATCCGTATTTGCT (site ACTTCGCCTAG)”, for which the “recombinant UMI read abundance (log10)” value came out at 0.0122.

For the sequence “ACTTGATCATGGACCGGTTTTCCCGGTAATCCGTATTTGGC (site ACTTGATCTGC)”, the “recombinant UMI read abundance (log10)” value worked out at 1.24.

“ACTTGCCCATGGACCGGTTTTCCCGGTAATCCGTATTTGAT (site ACTTGCCCTAT)”: the “recombinant UMI read abundance (log10)” value stood at 0.398.

On to “ACTTGCCCATGGACCGGTTTTCCCGGTAATCCGTATTTGAT (site CCTTGCCCTAT)”, for which the “recombinant UMI read abundance (log10)” value came to 0.0521.

Turning to “ACTTGCCCATGGACCGGTTTTCCCGGTAATCCGTATTTGAT (site GCTTGCCCTAT)”, the “recombinant UMI read abundance (log10)” value came out at 0.0168.

Consider “ACTTGCCCATGGACCGGTTTTCCCGGTAATCCGTATTTGAT (site TCTTGCCCTAT)”, for which the “recombinant UMI read abundance (log10)” value was 0.0192.

For “ACTTTGGCATGGACCGGTTTTCCCGGTAATCCGTATTTGTA (site ACTTTGGCTTA)”, the “recombinant UMI read abundance (log10)” value was found to be 1.26.

For “AGAAAACCATGGACCGGTTTTCCCGGTAATCCGTATTTGCG (site AGAAAACCTCG)”, the “recombinant UMI read abundance (log10)” value turned out to be 0.

As to “AGAAACGCATGGACCGGTTTTCCCGGTAATCCGTATTTGCT (site AGAAAAGCTAG)”, the “recombinant UMI read abundance (log10)” value stood at 1.84.

For the sequence “AGAAACGCATGGACCGGTTTTCCCGGTAATCCGTATTTGCT (site AGAAACGCTAG)”, the “recombinant UMI read abundance (log10)” value was determined as 2.81.

In the case of “AGAAACGCATGGACCGGTTTTCCCGGTAATCCGTATTTGCT (site AGAAAGGCTAG)”, the “recombinant UMI read abundance (log10)” value came to 0.

For the sequence “AGAAACGCATGGACCGGTTTTCCCGGTAATCCGTATTTGCT (site AGAAATGCTAG)”, the “recombinant UMI read abundance (log10)” value was determined as 0.

For “AGAAAGACATGGACCGGTTTTCCCGGTAATCCGTATTTGCG (site AGAAAGACTCG)”, the “recombinant UMI read abundance (log10)” value worked out at 2.63.

For the sequence “AGAAAGACATGGACCGGTTTTCCCGGTAATCCGTATTTGCG (site AGGAAGACTTG)”, the “recombinant UMI read abundance (log10)” value was found to be 0.

On to “AGAAAGGCATGGACCGGTTTTCCCGGTAATCCGTATTTGCG (site AGAAAGGCTAG)”, for which the “recombinant UMI read abundance (log10)” value amounted to 1.07.

“AGAAAGGCATGGACCGGTTTTCCCGGTAATCCGTATTTGCG (site AGAAAGGCTCG)”: the “recombinant UMI read abundance (log10)” value is 1.64.

For the sequence “AGAAAGGCATGGACCGGTTTTCCCGGTAATCCGTATTTGCG (site AGAAAGGCTGG)”, the “recombinant UMI read abundance (log10)” value is 0.

For “AGAAAGGCATGGACCGGTTTTCCCGGTAATCCGTATTTGCG (site AGAAAGGCTTG)”, the “recombinant UMI read abundance (log10)” value is 1.15.

With “AGAAAGGCATGGACCGGTTTTCCCGGTAATCCGTATTTGCT (site AAAAAGGCTAG)”, the “recombinant UMI read abundance (log10)” value turned out to be 0.

With “AGAAAGGCATGGACCGGTTTTCCCGGTAATCCGTATTTGCT (site ACAAAGGCTAG)”, the “recombinant UMI read abundance (log10)” value stood at 0.00966.

As to “AGAAAGGCATGGACCGGTTTTCCCGGTAATCCGTATTTGCT (site AGAAAAGCTAG)”, the “recombinant UMI read abundance (log10)” value is 0.

“AGAAAGGCATGGACCGGTTTTCCCGGTAATCCGTATTTGCT (site AGAAACGCTAG)”: the “recombinant UMI read abundance (log10)” value came out at 0.

For the sequence “AGAAAGGCATGGACCGGTTTTCCCGGTAATCCGTATTTGCT (site AGAAAGACTAG)”, the “recombinant UMI read abundance (log10)” value was 0.

For the sequence “AGAAAGGCATGGACCGGTTTTCCCGGTAATCCGTATTTGCT (site AGAAAGCCTAG)”, the “recombinant UMI read abundance (log10)” value stood at 0.

Regarding “AGAAAGGCATGGACCGGTTTTCCCGGTAATCCGTATTTGCT (site AGAAAGGCTAA)”, the “recombinant UMI read abundance (log10)” value is 0.446.

On to “AGAAAGGCATGGACCGGTTTTCCCGGTAATCCGTATTTGCT (site AGAAAGGCTAC)”, for which the “recombinant UMI read abundance (log10)” value amounted to 0.019.

With “AGAAAGGCATGGACCGGTTTTCCCGGTAATCCGTATTTGCT (site AGAAAGGCTAG)”, the “recombinant UMI read abundance (log10)” value came to 2.58.

For the sequence “AGAAAGGCATGGACCGGTTTTCCCGGTAATCCGTATTTGCT (site AGAAAGGCTAT)”, the “recombinant UMI read abundance (log10)” value came out at 1.27.

Turning to “AGAAAGGCATGGACCGGTTTTCCCGGTAATCCGTATTTGCT (site AGAAAGGCTCG)”, the “recombinant UMI read abundance (log10)” value is 1.65.

Take “AGAAAGGCATGGACCGGTTTTCCCGGTAATCCGTATTTGCT (site AGAAAGGCTGG)”: the “recombinant UMI read abundance (log10)” value was found to be 0.262.

In the case of “AGAAAGGCATGGACCGGTTTTCCCGGTAATCCGTATTTGCT (site AGAAAGGCTTG)”, the “recombinant UMI read abundance (log10)” value was found to be 0.

Consider “AGAAAGGCATGGACCGGTTTTCCCGGTAATCCGTATTTGCT (site AGAAAGTCTAG)”, for which the “recombinant UMI read abundance (log10)” value turned out to be 0.

Turning to “AGAAAGGCATGGACCGGTTTTCCCGGTAATCCGTATTTGCT (site AGAAATGCTAG)”, the “recombinant UMI read abundance (log10)” value was determined as 0.

Turning to “AGAAAGGCATGGACCGGTTTTCCCGGTAATCCGTATTTGCT (site AGAACGGCTAG)”, the “recombinant UMI read abundance (log10)” value is 0.235.

“AGAAAGGCATGGACCGGTTTTCCCGGTAATCCGTATTTGCT (site AGAAGGGCTAG)”: the “recombinant UMI read abundance (log10)” value was 0.224.

Regarding “AGAAAGGCATGGACCGGTTTTCCCGGTAATCCGTATTTGCT (site AGAATGGCTAG)”, the “recombinant UMI read abundance (log10)” value is 0.

In the case of “AGAAAGGCATGGACCGGTTTTCCCGGTAATCCGTATTTGCT (site AGACAGGCTAG)”, the “recombinant UMI read abundance (log10)” value was 0.

With “AGAAAGGCATGGACCGGTTTTCCCGGTAATCCGTATTTGCT (site AGAGAGGCTAG)”, the “recombinant UMI read abundance (log10)” value was found to be 0.846.

For “AGAAAGGCATGGACCGGTTTTCCCGGTAATCCGTATTTGCT (site AGATAGGCTAG)”, the “recombinant UMI read abundance (log10)” value is 1.23.
